In US10059669B2, “2-amino-3,5-difluoro-3,6-dimethyl-6-phenyl-3,4,5,6-tetrahydropyridines as BACE1 inhibitors for treating alzheimer's disease” (H. Lundbeck A/S, priority 2014, dated 2018) one finds inhibition, efflux ratio and Ki data, which are given here for 4 molecules.

Data set [1] has as its target T1, BACE1 (Homo sapiens (Human), UniProt P56817). Briefly: BACE1 efficacy assay (FRET-based, commercial BACE1 kit). The class given is biochemical. Conditions: 10 μM test compound. As to the method:
The efficacy assay was performed as a FRET-based assay using a commercially available BACE1 kit (Life Technologies, P2985). 2 μl test compound at 10 μM (final concentration) and 15 μl BACE1 enzyme from the kit (final concentration 3 nM) were preincubated for 15 minutes at room temperature before addition of 15 μl of substrate from the kit (250 nM final concentration) and incubated for additional 90 minutes at room temperature. The assay plate was subsequently read in a Pherastar (Ex540/Em590). The enzyme activity observed in presence of test compound were normalized to the enzyme activity observed in presence of buffer and 10 μM (final concentration) of the high affinity BACE1 reference inhibitor (S)-6-[3-Chloro-5-(5-prop-1-ynyl-pyridin-3-yl)-thiophen-2-yl]-2-imino-3,6-dimethyl-tetra-hydropyrimidin-4-one, respectively. The efficacy of the test compounds was evaluated at 10 μM (final concentration) and defined as the percent inhibition of the enzyme activity using the equation % inhibition=100%−normalized enzyme activity in percent.

The next data set concerns P-gp (MDR1). Briefly: MDCK-MDR1 assay (permeability, efflux ratio). The class given is in vitro ADME. Conditions: dog, Papp BA/Papp AB, 60-minute incubation, Pgp substrate when ≥2. As to the method:
The permeability of the test compounds was assessed in MDCK-MDR1 cells that were cultured to confluency (4-6 days) in a 96 transwell plate. Test compounds were diluted with the transport buffer (HBSS+1% BSA) to a concentration of 0.5 μM and applied to the apical or basolateral side of the cell monolayer. Permeation of the test compounds from A to B direction or B to A direction was determined in triplicate over a 60-minute incubation time at 37° C. and 5% CO2 with a relative humidity of 95%. Test compounds were quantified by LC-MS/MS analysis based on the peaks area ratios of analyte/IS in both the receiver and donor wells of the transwell plate.
The apparent permeability coefficient Papp (cm/s) was calculated using the equation: Papp=(dCr/dt)×Vr/(A×C0)
Where dCr/dt is the cumulative concentration of compound in the receiver chamber as a function of time (M/s); Vr is the solution volume in the receiver chamber (0.05 mL on the apical side; 0.25 mL on the basolateral side); A is the surface area for the transport, i.e. 0.0804 cm^2 for the area of the monolayer; C0 is the initial concentration in the donor chamber (VIM).
Compounds are classified Pgp substrates when efflux ratio (Papp BA/Papp AB) is ≥2.

Data set [2] deals with T1, BACE1. Briefly: BACE1 binding assay (SPA-based radioligand binding). Particulars: pH 4.5, 10 nM radioligand, Ki calculated from IC50. As to the method: The binding assay was performed as SPA-based assay using a biotinylated form of human BACE1 recombinantly expressed and subsequently purified from Freestyle HEK293 cells. The binding assay was run in a 50 mM sodium acetate buffer, pH 4.5 containing 50 mM NaCl and 0.03% Tween-20 in white clear bottom 384 plates (Corning #3653). 10 nM (final concentration) radioligand ([^3H]—N-((1S,2R)-1-benzyl-3-cyclopropylamino-2-hydroxy-propyl)-5-(methanesulfonyl-methyl-amino)-N—((R)-1-phenyl-ethyl)-isophthalamide) (TRQ11569 purchased from GE Healthcare) was mixed with test compound at a given concentration, 6 nM (final concentration) human BACE1 and 25 μg Streptavidin coated PVT core SPA beads (RPNQ0007, GE Healthcare Life Sciences) in a total volume of 40 μl. Several concentrations of each test compound were tested in the assay for IC50 determination. The plates were incubated for one hour at room temperature and counted in a Wallac Trilux counter. Total and non-specific binding were determined using buffer and 1 μM (final concentration) of the high affinity BACE1 reference inhibitor (S)-6-[3-chloro-5-(5-prop-1-ynyl-pyridin-3-yl)-thiophen-2-yl]-2-imino-3,6-dimethyl-tetrahydro-pyrimidin-4-one, respectively. For each test compound, a IC50 value (the concentration mediating 50% inhibition of the specific binding of the radioligand) was determined from concentration-response curve and used to calculate the Ki from the equation Ki=IC50/(1+L/Kd), where L and Kd are the final concentration of the radioligand used in the assay and the dissociation constant of the radioligand, respectively. The Kd of the radioligand was determined from saturation binding experiments.

T1 sequence (P56817 46-501): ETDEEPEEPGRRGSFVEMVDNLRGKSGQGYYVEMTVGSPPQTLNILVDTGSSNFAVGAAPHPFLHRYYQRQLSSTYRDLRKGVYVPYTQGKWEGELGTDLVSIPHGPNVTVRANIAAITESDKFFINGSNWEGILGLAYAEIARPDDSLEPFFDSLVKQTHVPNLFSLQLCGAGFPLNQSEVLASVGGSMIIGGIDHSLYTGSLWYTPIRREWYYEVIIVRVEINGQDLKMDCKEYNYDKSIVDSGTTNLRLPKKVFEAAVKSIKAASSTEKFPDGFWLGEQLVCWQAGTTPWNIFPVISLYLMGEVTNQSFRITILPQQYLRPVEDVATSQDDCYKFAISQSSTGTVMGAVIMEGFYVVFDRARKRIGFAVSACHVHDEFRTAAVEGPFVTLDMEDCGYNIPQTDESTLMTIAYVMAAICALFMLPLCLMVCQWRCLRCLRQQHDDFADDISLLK

Take `[2H]C([2H])([2H])Oc1ccc(C(=O)Nc2cc(F)c(F)c([C@@]3(C)N=C(N)[C@](C)(F)C[C@@H]3F)c2)nc1` [Compound 18, N-(3-((2R,3S,5R)-6-amino-3,5-difluoro-2,5-dimethyl-2,3,4,5-tetrahydropyridin-2-yl)-4,5-difluorophenyl)-5-(methoxy-d3)picolinamide]: on BACE1 [1], the inhibition at 10 µM came to 101%. The efflux ratio at 60 min, 0.5 μM in the data set with P-gp (MDR1) amounted to 1.24. Moreover, the Ki at BACE1 [2] was 6.8 nM.
As to `Cc1cc(C#N)cnc1C(=O)Nc1ccc(F)c([C@@]2(C)N=C(N)[C@@](C)(F)C[C@@H]2F)c1` [Compound 21, N-(3-((2R,3S,5S)-6-amino-3,5-difluoro-2,5-dimethyl-2,3,4,5-tetrahydropyridin-2-yl)-4-fluorophenyl)-5-cyano-3-methylpicolinamide], the inhibition at 10 µM against BACE1 [1] worked out at 117%. Besides, in the data set on P-gp (MDR1), the efflux ratio at 60 min, 0.5 μM was 1.15. In addition, the Ki at BACE1 [2] was 4.1 nM.
For `[2H]C([2H])([2H])Oc1ccc(C(=O)Nc2cc(F)c(F)c([C@@]3(C)N=C(N)[C@@](C)(F)C[C@@H]3F)c2)nc1` [Compound 22, N-(3-((2R,3S,5S)-6-amino-3,5-difluoro-2,5-dimethyl-2,3,4,5-tetrahydropyridin-2-yl)-4,5-difluorophenyl)-5-(methoxy-d3)picolinamide] the same measures were 101%, 0.52 and 3.6 nM.
As for `[2H]C([2H])([2H])Oc1ccc(C(=O)Nc2ccc(F)c([C@@]3(C)N=C(N)[C@@](C)(F)C[C@H]3F)c2)nc1` [Compound 23, N-(3-((2R,3R,5S)-6-amino-3,5-difluoro-2,5-dimethyl-2,3,4,5-tetrahydropyridin-2-yl)-4-fluorophenyl)-5-(methoxy-d3)picolinamide], the inhibition at 10 µM against BACE1 [1] was found to be 107%. In the data set on P-gp (MDR1), the efflux ratio at 60 min, 0.5 μM turned out to be 0.95. In addition, the inhibition constant Ki on BACE1 [2] is 81 nM.

What is called inhibition is the drop in the measured response relative to a control, in per cent. Usually efflux ratio stands for the permeability from basolateral to apical divided by that in the opposite direction, in the common usage. The Ki is the dissociation constant of the complex between target and ligand, obtained from inhibition or displacement.
